The values that follow come from US20110245334A1, “USE OF RACEMATES OF PINOCEMBRIN IN PREPARING MEDICAMENTS FOR TREATING STROKE” (CSPC Zhonggi Pharmaceutical Technology (Shijiazhuang) Co. …, priority 2008, published 2011).

For series [1] the following is noted: antihistamine, oral administration; cited from earlier work.
The test system of the next series is plasma fibrinogen. The series is described as follows: Plasma fibrinogen assay (ELISA) in SHRSP. In kind it is in vivo, rat. Set-up: Plasma fibrinogen: unit not given here. As to conditions: SHRSP rats. Here is the method: The mixture was centrifuged for 15 min at 3000 rpm and plasma fibrinogen in liquid supernatant was determined by euzymelinked immunosorbent assay (ELISA).

Another series deals with plasma ET-1. The series is described as follows: Plasma ET-1 (radioimmunoassay) in SHRSP. The settings on record: SHRSP rats; for ET-1 content: plasma. Set-up: ET-1 content: unit not given here. The series is classed as in vivo, rat. The protocol:
5) Blood of 2 mL was dropped rapidly in a cuvette with 30 μL 7.5% EDTA-2Na and 40 μL aprotinin and mixed. After centrifuged for 5 min at 3000 rpm, plasma ET-1 in liquid supernatant was determined by isotope radioimmunoassay.

In series [2] the test system is tMCAO rats. Description: Neurobehavioral examination (Bederson's score), tMCAO time window study. The series is classed as in vivo, rat. The settings on record: 2 hours ischemia and 24 hours reperfusion. Here is the method:
(§1) 1. In the test, transient middle cerebral artery occlusion (tMCAO) model of rats was adopted. The reperfusion was performed after focal cerebral ischemia for 2 hours so as to inspect therapeutic time window of pinocembrin after focal cerebral ischemia. The rats were administered by pinocembrin racemate (1 mg/kg, 5 mg/kg, intravenous injection) after reperfusion 1 hour, 4 hours and 6 hours (i.e., ischemia 3 hour, 6 hours and 8 hours). (R)-pinocembrin and (S)-pinocembrin (1 mg/kg, 5 mg/kg, intravenous injection) were administered after reperfusion 1 hour and 4 hours (i.e., ischemia 3 hour and 6 hours). The therapeutic time windows of these drugs in focal cerebral ischemia were assessed by studying their effects to neurological symptom scores, infarct sizes and brain water contents during 24 hours after tMCAO.
The CCA and ICA were clipped with artery clips. Two No. 0 surgery lines were litigated on the ECA distal end with 2-3 mm spacing and then the vascular between the two surgery lines was cut. The distal end of ECA was pulled until it formed a straight line with the ICA. An incision was cut on ECA and a nylon line was inserted through ECA into ICA. After the artery clip was loosen, the nylon line was pushed on into the brain through ICA and inserted in depth of 18.5±0.5 mm when resistance was felt slightly. The nylon line reached a smaller anterior cerebral artery through the beginning of MCA and then the blood flow obstruction in right MCA was established. the animals were kept in anesthesia during the obstruction. After 2 hours of obstruction, the nylon line was gently pulled out to ECA stub to form reperfusion. During the surgery process, the animals were irradiated by table lamp of 100 W to maintain the body temperature. The room temperature was kept in range of 23-25° C.
(§2) 2.4 Experimental Grouping and Administration • Sham operation group (intravenous injection of normal saline after 3 hours of ischemia); • Model group (intravenous injection of 50 mg/kg hydroxypropyl β-cyclodextrin after 3 hours of ischemia); • Nimodipine group (1 mg/kg, administered after 3 hours of ischemia); • Pinocembrin racemate group (1 mg/kg, 5 mg/kg, administered after 3, 6 and 8 hours of ischemia); • (R)-pinocembrin group (1 mg/kg, 5 mg/kg, administered after 3 and 6 hours of ischemia); • (S)-pinocembrin group (1 mg/kg, 5 mg/kg, administered after 3 and 6 hours of ischemia).
(§3) First administration was performed by intravenous injection, and intraperitoneal injection was carried out once 12 hours later with a dose 1.5 times of that for intravenous injection.
Neurobehavioral examination was performed respectively when the animals were awake after surgery and before the animals were put to death. Bederson's score was adopted (see details in Example 2, 1. Neurobehavioral Examination).

Series [3] concerns tMCAO rats. The series is described as follows: Infarct volume (TTC), tMCAO time window study. The series is classed as in vivo, rat. As to conditions: 2 hours ischemia and 24 hours reperfusion. Here is the method: as §1, §2, §3
After neurobehavioral scoring, the rats were put to death by decollation and their brain tissues were taken out quickly and put into a refrigerator of −20° C. 10 min later, the brain tissues were moved to an environment of room temperature. After the olfactory bulb, cerebellar and lower brain stem were resected, the brain tissue was cut into six continuous coronal slices with an interval of 2 mm. Then the brain slices were quickly put into 5 ml solution containing 2% TTC and incubated at a constant temperature of 37° C. and in a condition of darkness for 30 min. During the time, the brain slices were tipped every 5 min. […] Every group of brain slices were put in order and photographed. The photographs were processed by an image analysis system and the infarct areas in each slice were calculated. The infarct volume of each slice was calculated via multiplying the infarct area by thickness of slice (2 mm), and the infarct volume was the sum of infarct volumes of all slices. The infarct volume percentage was expressed as: sick-side infarct volume/total sick-side brain volume.

The test system of series [4] is tMCAO rats. The series is described as follows: Brain water content, tMCAO time window study. The series is classed as in vivo, rat. As to conditions: 2 hours ischemia and 24 hours reperfusion. The protocol: as §1, §2, §3
The wet weight of each animal's brain was weighted before sliced. After staining, the brain slices were dried at 105° C. for 24 hours, and the dry weight of each animal's brain was weighted. The brain water contents of animals of various groups were compared. Brain water content=(brain wet weight−brain dry weight)/brain wet weight×100%.

Series [5] has as its system tMCAO rats. Description: Therapeutic time window in focal cerebral ischemia-reperfusion injured rats. In kind it is in vivo, rat. The settings on record: tMCAO rats, 1 mg/kg, 5 mg/kg. The protocol: as §1, §2, §3
A further series concerns SD rats. Description: Acute toxicity, single intravenous injection. The settings on record: single intravenous injection in SD rats.
Another series can be described thus: in vivo. The settings on record: SD, rat, iv.
For a further series, the system named is MCAO rats. The series is described as follows: Nissl staining of hippocampal neurons, MCAO. In kind it is in vivo, rat. The settings on record: hippocampus, cerebral ischemia 24 hours. The protocol:
After cerebral ischemia for 24 hours, the rats were anesthetized by intraperitoneal injection of 10% Chloral hydrate. After perfused via heart with heparinized normal saline for 10 min and 4% paraformaldehyde for 30 min, the brain tissue was taken out and moved in 4% paraformaldehyde to fix, then cut into coronal sections (6 μm) by a frozen section machine, and one section was taken out in every 20 sections to stain. The stained sections were expanded on a slide glass treated by polylysine, and then preserved in a refrigerator at −40° C.
Nissel staining: (1) the frozen section was taken out from the refrigerator and dried in room temperature; (2) put into acetone to fix for 30 min and washed by PBS for 3 times, 3 min every time; (3) dipped for 20-30 min in toluidine blue dye and then washed by water for 15 min; (4) dehydrated by ethanol in gradient manner and vitrified by xylene and mounted by a neutral gum; (5) observed under a light microscope and photographed for analysis; (6) 4 frozen sections in roughly same position for each rat were taken out and 5 vision fields in hippocampus for each section were observed under 200× light microscope (totally 20 visions per rat). The cells in vision fields were counted. The averages of ratios of the numbers in the administration groups to the number in the model group were calculated for statistical analysis.

Setting [6] is: initially injected after 3 hours of ischemia.
Setting [7] is: initially injected after 6 hours of ischemia.

Consider `CC(CN1c2ccccc2Sc2cccnc21)N(C)C` (racemic) [isothipendyl racemate, isothipendyl], for which, in [1], the “efficacy relative to (+)-isomer” value is 2.5 times and the “efficacy relative to (−)-isomer” value is 1.4 times.
Take `O=C1C[C@H](c2ccccc2)Oc2cc(O)cc(O)c21` [(R)-pinocembrin]: the Plasma fibrinogen with plasma fibrinogen (3 mg/kg) worked out at 2.99 ± 0.13; in the series with plasma fibrinogen (10 mg/kg), 2.83 ± 0.18; in the series on plasma fibrinogen (30 mg/kg), 2.74 ± 0.47. In addition, the figures for the ET-1 content with plasma ET-1 (3 mg/kg), in the series with plasma ET-1 (10 mg/kg) and in the series with plasma ET-1 (30 mg/kg) were 235.4 ± 35.2, 228.4 ± 16.9 and 198.1 ± 35.4, respectively. In addition, the Neurobehavioral value in the series on tMCAO rats [2] (1 mg/kg, 3 h) is reported as 1.42 ± 0.82; with tMCAO rats [2] (1 mg/kg, 6 h) it was 1.86 ± 0.57; in the series with tMCAO rats [2] (5 mg/kg, 3 h) it was 1.39 ± 0.72; with tMCAO rats [2] (5 mg/kg, 6 h), 1.83 ± 0.49. Moreover, the “Infarct percentage (%)” value in the series on tMCAO rats [3] (1 mg/kg, 3 h) was determined as 15.69 ± 7.82 %; with tMCAO rats [3] (1 mg/kg, 6 h), 26.33 ± 12.67%; in the series with tMCAO rats [3] (5 mg/kg, 3 h) it was 15.66 ± 7.88 %; with tMCAO rats [3] (5 mg/kg, 6 h), 25.89 ± 13.57%. Besides, the “Brain water content (%)” value with tMCAO rats [4] (1 mg/kg, 3 h) was determined as 82.18 ± 0.98 %; in the series with tMCAO rats [4] (1 mg/kg, 6 h), 83.36 ± 1.12%; in the series on tMCAO rats [4] (5 mg/kg, 3 h), 81.20 ± 1.03 %; with tMCAO rats [4] (5 mg/kg, 6 h), 83.77 ± 1.07%. The “effect on neurobehavioral injury, infarct volume and cerebral edema” value in the series on tMCAO rats [5] (setting [6]) is reported as “significant effects”; in the series on tMCAO rats [5] (setting [7]), “not effective”. For the same compound, the LD50 in the series on SD rats is recorded as 347.8 (257.4˜466.3) mg/kg.
Turning to `O=C1C[C@@H](c2ccccc2)Oc2cc(O)cc(O)c21` [(S)-pinocembrin, reference compound], the Plasma fibrinogen in the series with plasma fibrinogen (3 mg/kg) worked out at 3.00 ± 0.32; in the series with plasma fibrinogen (10 mg/kg), 2.99 ± 0.61; with plasma fibrinogen (30 mg/kg), 2.81 ± 0.57. In the series with plasma fibrinogen (compared with the model group), the “effect on content of plasma fibrinogen” value is listed as “no activity”. In addition, the “effect on plasma ET-1 content” value in the series with plasma ET-1 (compared with the model group) is “no activity”. Besides, the ET-1 content is recorded as 243 ± 19.5 in the series with plasma ET-1 (3 mg/kg), 240 ± 16.8 in the series on plasma ET-1 (10 mg/kg) and 240.8 ± 24.3 in the series with plasma ET-1 (30 mg/kg). Moreover, the Neurobehavioral value is on record as 1.29 ± 0.72 in the series with tMCAO rats [2] (1 mg/kg, 3 h); 1.79 ± 0.63 with tMCAO rats [2] (1 mg/kg, 6 h); 1.59 ± 0.77 in the series with tMCAO rats [2] (5 mg/kg, 3 h); 1.77 ± 0.70 in the series with tMCAO rats [2] (5 mg/kg, 6 h). The “Infarct percentage (%)” value in the series on tMCAO rats [3] (1 mg/kg, 3 h) is recorded as 15.32 ± 7.98 %; in the series with tMCAO rats [3] (1 mg/kg, 6 h), 28.06 ± 12.98%; in the series with tMCAO rats [3] (5 mg/kg, 3 h), 15.78 ± 7.28 %; in the series with tMCAO rats [3] (5 mg/kg, 6 h), 25.97 ± 12.75%. In addition, the “Brain water content (%)” value in the series with tMCAO rats [4] (1 mg/kg, 3 h) was determined as 81.95 ± 1.00 %; with tMCAO rats [4] (1 mg/kg, 6 h), 82.96 ± 0.98%; in the series on tMCAO rats [4] (5 mg/kg, 3 h), 81.87 ± 1.12 %; in the series with tMCAO rats [4] (5 mg/kg, 6 h) it was 83.37 ± 1.27%. The “effect on neurobehavioral injury, infarct volume and cerebral edema” value was “significant effects” in the series on tMCAO rats [5] (setting [6]) and “not effective” in the series with tMCAO rats [5] (setting [7]). In “in vivo”, this compound came in with an LD50 of 375 mg/kg.
With pinocembrin racemate, the “increase of nerve cells in comparison with the model group” value was determined as 11.5±8.9% with MCAO rats (3 mg/kg), 36.8±4.9% in the series on MCAO rats (10 mg/kg) and 51.7±6.6% with MCAO rats (30 mg/kg).
